These results are taken from ChEMBL document CHEMBL1137396, “Discovery of (1R,5S)-N-[3-amino-1-(cyclobutylmethyl)-2,3-dioxopropyl]- 3-[2(S)-[[[(1,1-dimethylethyl)amino]carbonyl]amino]-3,3-dimethyl-1-oxobutyl]- 6,6-dimethyl-3-azabicyclo[3.1.0]hexan-2(S)-carboxamide (SCH 503034), a selective, potent, orally bioavailable hepatitis C virus NS3 protease …” (J Med Chem, 2006).

The target in data set [1] is NS3 (Hepatitis C virus, UniProt A3EZJ3). In words: Binding affinity at HCV NS3 protease. More on the design: species or system Hepatitis C virus subtype 1b.
Data set [2] can be described thus: AUC in rat. It counts as ADME, organism-based. The conditions noted are these: plasma.
The nature of data set [3]: AUC in rat at 10 mg/kg, po. As to conditions: plasma. Type of data set: ADME, organism-based. More on the design: dose 10 mg/kg, route oral.
Data set [4] relates to Huh-5-2. In words: Cytotoxicity against hepatoma cell line containing HCV replicon measured as change in GAPDH RNA level. Type of data set: functional, Homo sapiens. A general note: A replicon is a self-replicating genome or part of one, used to study replication in cells.
Data set [5] is described as follows: Bioavailability in rat at 10 mg/kg, po. Type of data set: ADME, organism-based. The conditions noted are these: in vivo.
A short description of data set [6]: Selectivity for human neutrophil elastase (HNE) over HCV NS3 protease.
The subject of data set [7] is Hepatocyte. In words: Inhibition of HCV replication in hepatocytes measured by cellular replicon assay. Type of data set: functional. As to conditions: Hepatitis C virus.
The nature of data set [8]: AUC in monkey at 3 mg/kg, po. The conditions noted are these: rhesus monkey, plasma.
Data set [9] in a line: Bioavailability in monkey at 3 mg/kg, po. As to conditions: rhesus monkey, in vivo.
Data set [10] is described as follows: Bioavailability in dog at 2 mg/kg, po. Type of data set: ADME, organism-based, Canis lupus familiaris. The conditions noted are these: in vivo.
Data set [11] in a line: AUC in dog at 2 mg/kg, po. Type of data set: ADME, organism-based, Canis lupus familiaris. More on the design: dose 2 mg/kg, route oral. As to conditions: plasma.
The nature of data set [12]: AUC in monkey at 2 mg/kg, po. As to conditions: rhesus monkey, plasma.
Data set [13] can be described thus: Bioavailability in monkey at 2 mg/kg, po. The conditions noted are these: rhesus monkey, in vivo.
Data set [14] can be described thus: AUC in dog at 3 mg/kg, po. On the set-up: dose 3 mg/kg, route oral. It counts as ADME, organism-based, Canis lupus familiaris. The conditions noted are these: plasma.
The nature of data set [15]: Bioavailability in dog at 3 mg/kg, po. It counts as ADME, organism-based, Canis lupus familiaris. As to conditions: in vivo.
The nature of data set [16]: Bioavailability in mouse. It counts as ADME, organism-based. The conditions noted are these: in vivo.
Data set [17] in a line: Ratio of drug level in liver against plasma in rat. Type of data set: ADME, organism-based.
Data set [18] in a line: AUC(0-6h) in rat at 10 mg, po. It counts as ADME, organism-based. More on the design: time < 6 hr, dose 10 mg, route oral. As to conditions: plasma.

Where only a bound is given, the exact number is not on record here.

Sequence of NS3 (A3EZJ3 whole entry): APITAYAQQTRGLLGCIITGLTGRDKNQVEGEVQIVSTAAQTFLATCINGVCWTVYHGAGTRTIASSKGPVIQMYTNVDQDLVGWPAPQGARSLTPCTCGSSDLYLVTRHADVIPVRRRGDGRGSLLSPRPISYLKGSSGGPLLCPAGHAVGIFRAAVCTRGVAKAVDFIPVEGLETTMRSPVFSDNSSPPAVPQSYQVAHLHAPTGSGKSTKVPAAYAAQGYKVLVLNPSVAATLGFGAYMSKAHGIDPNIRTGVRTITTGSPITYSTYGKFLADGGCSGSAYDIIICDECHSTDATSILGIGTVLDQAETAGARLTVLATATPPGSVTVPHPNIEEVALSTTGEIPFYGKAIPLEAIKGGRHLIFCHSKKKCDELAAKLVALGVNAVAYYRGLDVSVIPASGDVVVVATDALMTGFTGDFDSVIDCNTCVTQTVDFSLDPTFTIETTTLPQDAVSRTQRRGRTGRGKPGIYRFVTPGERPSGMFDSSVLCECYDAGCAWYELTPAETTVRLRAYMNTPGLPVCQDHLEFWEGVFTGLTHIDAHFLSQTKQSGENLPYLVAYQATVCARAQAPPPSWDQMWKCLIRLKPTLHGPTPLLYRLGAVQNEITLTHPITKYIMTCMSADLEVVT

The Ki is a measure of affinity in units of concentration, obtained from inhibition or displacement. The term AUC denotes the area under the concentration-time curve, a measure of exposure. With `CCCC(NC(=O)[C@@H]1[C@@H]2[C@H](CN1C(=O)[C@@H](NC(=O)OC(C)(C)C)C1CCCCC1)C2(C)C)C(=O)C(=O)NCC(=O)NCc1cccs1` (some centres undefined), the inhibition constant (Ki) in data set [1] was 60 nM. In [2], this compound displayed an AUC of 0.73 µM·h.
As to `CCCC(NC(=O)[C@@H]1[C@@H]2[C@H](CN1C(=O)[C@@H](NC(=O)OC(C)(C)C)C1CCCCC1)C2(C)C)C(=O)C(=O)NCC(=O)N[C@H](C)C1CCCCC1` (some centres undefined), in data set [1], the inhibition constant Ki worked out at 100 nM. This compound also yielded an exposure (AUC) in [2] of 0.09 µM·h.
As for `CCCC(NC(=O)[C@@H]1[C@@H]2[C@H](CN1C(=O)[C@@H](NC(=O)OC(C)(C)C)C1CCCCC1)C2(C)C)C(=O)C(=O)NCC(=O)NCc1ccccc1` (some centres undefined), affinity in [1] was put at a Ki of 56 nM. This compound also returned an area under the curve (AUC) in data set [2] of 1.27 µM·h.
The bioavailability is dose-corrected exposure relative to a reference, in per cent. A word on the EC90: it is the concentration needed for an effect of 90%. Take `CC(C)(C)OC(=O)N[C@H](C(=O)N1C[C@H]2[C@@H]([C@H]1C(=O)NC(CC1CCC1)C(=O)C(N)=O)C2(C)C)C1CCCCC1` (some centres undefined): the AUC in data set [3] worked out at 1.5 µM·h; in data set [8] it was 0.11 µM·h. Also, the Activity in data set [4] was more than 5 µM. Moreover, the figures for the bioavailability in [5] and in [9] were 28% and 1%, respectively. The affinity in data set [1] corresponds to a Ki of 8 nM. In [6], the Selectivity ratio came to 138. In data set [7], this compound had a concentration for an effect of 90% (EC90) of 700 nM.
`CC(C)(C)NC(=O)N[C@H](C(=O)N1C[C@H]2[C@@H]([C@H]1C(=O)NC(CC1CC1)C(=O)C(N)=O)C2(C)C)C(C)(C)C` (some centres undefined): the AUC in [3] came to 1 µM·h; in [11] it was 1.6 µM·h; in [12], 0.05 µM·h. Further, the bioavailability in data set [10] was 36%; in [5], 16%; in data set [13], 2%. Also, the Activity in [4] was more than 5 µM. This compound yielded a Ki in data set [1] of 13 nM. For the same compound, the Selectivity ratio in data set [6] was determined as 369. The concentration for an effect of 90% (EC90) in data set [7] was found to be 400 nM.
One may read the Kp as tissue or fluid exposure divided by exposure in the circulation. `CC(C)(C)NC(=O)N[C@H](C(=O)N1C[C@H]2[C@@H]([C@H]1C(=O)NC(CC1CCC1)C(=O)C(N)=O)C2(C)C)C(C)(C)C` (some centres undefined) [BOCEPREVIR]: the exposure (AUC) in data set [3] is 1.52 µM·h; in [14], 3.08 µM·h; in data set [8], 0.12 µM·h. This compound gave an Activity in [4] of more than 5 µM. The bioavailability amounted to 26% in data set [5], 30% in data set [15], 34% in [16] and 4% in data set [9]. For the same compound, the concentration ratio (Kp) in data set [17] worked out at 30. In [1], this compound showed a Ki of 14 nM. Also, the Selectivity ratio in data set [6] was determined as 2200. In addition, in [7], the concentration for an effect of 90% (EC90) stood at 350 nM.
The AUC(0-t) is exposure summed from dosing to a finite time, without extrapolation to infinity. `CCCC(NC(=O)[C@@H]1[C@@H]2[C@H](CN1C(=O)[C@@H](NC(=O)OC(C)(C)C)C1CCCCC1)C2(C)C)C(=O)C(N)=O` (some centres undefined) displayed a Ki in data set [1] of 100 nM. The Selectivity ratio in data set [6] was found to be 3. For the same compound, the AUC(0-t) at 6 h in [18] came to 2.52 µM·h.
